Assay results taken from patent US20220117945A1, “ISOXAZOLE CARBOXAMIDE COMPOUNDS AND USES THEREOF” (NOVARTIS AG, priority 2017, published 2022).

Experiments:
[1] = test system: 6-day-postnatal mouse cochlea explants with hair cell damage; assay: Ex vivo hair cell induction assay using 6-day-postnatal mouse cochlea explants with hair cell damage; type: cell-based; conditions: P6 Atoh1-GFP mouse cochlea explants, neomycin-damaged; 3 to 10 μM compound for 8 days, then 4 days blank medium; mean ± SD; DMSO = 0%; more than 20% considered significant
Description: (§1) Compounds of the present disclosure were assessed for their ability to increase the Atoh1 expression in mouse cerebellar neural precursor cells. The ability of compounds of the present disclosure to induce new hair cell formation was assessed in ex vivo hair cell induction assay using 6-day-postnatal mouse cochlea explants with hair cell damage.
Ex Vivo Hair Cell Induction Assay Using 6-Day-Postnatal Mouse Cochlea Explants with Hair Cell Damage
P6, postnatal 6 days, Atoh1-GFP mice, the same mouse strain used for Atoh1 induction assay described before, were used in this assay. The otic capsule was exposed and the cochleae were micro-dissected. […] and in vitro cultured in serum free medium (culture medium: DMEM/F12+1% N2+2% B27+5 μg/ml ampicillin) at 37° C. under a standard gas atmosphere of humidified air/5% CO2. Inner ear hair cells were damaged by 1 mM Neomycin treatment for 1.25 h. After the neomycin treatment, explants were cultured in blank culture medium for 7 days before the treatment of selected compounds.
For compound administration, the cochlea explants were treated with 3 to 10 μM compound of the present disclosure, with DMSO as the negative control for 8 days with once compound/medium change. After 8 days treatment, the tested compound was removed. The explants were cultured in blank medium for additional 4 days. The cochlea explant cultures then were fixed with 4% w/v formalin and processed for Myo7a immunofluorescence (Myo7a is a specific marker for sensory hair cell) using the rabbit anti-Myo7a antibody (Protus Biosci #25-6790, 1:250 diluted in PBS containing 3% BSA). Rhodamine labeled Goat-anti-rabbit IgG (Molecular Prob. #R6394, 1:1000 diluted in PBS containing 3% BSA) was used as the secondary antibody to visualize the Myo7a positive cells. The images were collected and analyzed using the EVOS image system (Thermo-Fisher Scientific). […] The hair cell identity of the ectopically formed cells was confirmed by staining the cells with multiple hair cell markers.
The efficacy of hair cells induction in this assay is represented by the responsive length percentage of Atoh1 and Myo7a double positive cells in the damaged whole explants after compound treatment. The responsive length percentage was calculated according to the equation of ((the explant length with Atoh1 and Myo7a double positive cells/the full length of cochlea explant)*100%). Note the value of DMSO control is 0% due to total damage of hair cells, and any responsive length percentage more than 20% is considered as significant hair cell induction.

[2] = test system: Atoh1 expression in mouse cerebellar neural precursor cells; assay: Atoh1 induction assay in mouse cerebellar neural precursor cells (NPCs), Atoh1-GFP reporter; type: cell-based; conditions: 10 doses 50 μM to 200 nM, 72 hours treatment, DMSO control = 1, more than 5 considered significant, read-out: fold difference (maximum fold difference of GFP average intensity in cell nuclei over the DMSO control)
Description: as §1
Atoh1 Induction Assay in Mouse Cerebellar Neural Precursor Cells (NPCs)
Atoh1 induction assay was conducted with in vitro cultured cerebellar neural precursor cells isolated from neonatal transgenic Atoh1-GFP mice. Atoh1 expression is mainly regulated by the enhancer, and the nuclear GFP was driven by the cloned enhancer sequence at 3′ of Atoh1 which had high conservation among mammalians. So Atoh1 induction could be reflected by GFP activation in cerebellar neural precursor cells (Helms et al., Development 2000; 127: 1185-1196; Lumpkin et al., Gene Expression Patterns 2003; 3: 389-395). Postnatal 3 days pups were dissected for cerebellum tissue isolation. The cerebellum tissue was cut into small pieces, and dissociated with 0.05% Trypsin for about 10 minutes at 37° C., and then filtered with a 70 uM cell strainer. The cells were cultured as neuropsheres for the first 2 days in ultra-low attachment dish/well-plate with DMEM/F12+1% N2 &2% B27 with 1% P/S, 20 ng/ml rhFGF2 and 20 ng/ml rhEGF (R&D Systems). Then the spheres were plated to the matrigel (1:30 diluted in DMEM/F12)-coated tissue culture dish for monolayer culture. After 4.5-5.5 days culture in vitro (DIV), cells were dissociated with 0.05% trypsin into single cells, and frozen after cell number calculation.
The cerebellar neural precursor cells (NPCs) were re-thawed from stock and cultured for another 2 days before used for Atoh1 induction assay. On the first day of assay, NPCs were seeded into matrigel-coated 384 well plates (Black view-plate, PE) at 2500 cells/well. After over-night culture, the NPCs were treated with representative compounds of the present disclosure with 1:2 serial dilutions for 10 doses, from 50 μM to 200 nM, with DMSO as negative control. After 72 hours treatment without medium change, the cells were fixed with 4% formalin for staining. Assay plates were stained with GFP antibody (Abcam, #13970, 1:1000) to amplify endogenous GFP signal and then read by Cellomics.

SMILES	Responsive length % (explant length with Atoh1 and Myo7a double positive cells / full length of cochlea explant) [1]	maximal fold induction [2]
CN1CCN(CCCCCNC(=O)c2cc(-c3cccs3)on2)CC1 [Example 8, N-(5-(4-Methylpiperazin-1-yl)pentyl)-5-(thiophen-2-yl)isoxazole-3-carboxamide]	54.0 ± 6.3%	30.9
CN1CCN(CCCCCNC(=O)c2cc(-c3ccc(F)cc3)on2)CC1 [Example 10, 5-(4-Fluorophenyl)-N-(5-(4-methylpiperazin-1-yl)pentyl)isoxazole-3-carboxamide]	59.1 ± 9.1%	17.6
O=C(NCCCCCN1CC2CCC(C1)N2)c1cc(-c2cccs2)on1 [Example 11, N-(5-(3,8-Diazabicyclo[3.2.1]octan-3-yl)pentyl)-5-(thiophen-2-yl)isoxazole-3-carboxamide]	51.7 ± 8.1%	12.4
CN1C2CCC1CN(CCCCCNC(=O)c1cc(-c3cccs3)on1)C2 [Example 12, N-(5-(8-Methyl-3,8-diazabicyclo[3.2.1]octan-3-yl)pentyl)-5-(thiophen-2-yl)isoxazole-3-carboxamide]	39.7 ± 8.2%	21.1
CC1CN(CCCCCNC(=O)c2cc(-c3cccs3)on2)CC(C)N1 (centres unmarked) [Example 14, N-(5-(3,5-Dimethylpiperazin-1-yl)pentyl)-5-(thiophen-2-yl)isoxazole-3-carboxamide]	45.3 ± 6.7%	29.1
CC1CN(CCCCCNC(=O)c2cc(-c3cccs3)on2)CC(C)N1C (centres unmarked) [Example 15, 5-(Thiophen-2-yl)-N-(5-(3,4,5-trimethylpiperazin-1-yl)pentyl)isoxazole-3-carboxamide]	50.1 ± 9.9%	15.3
COC(=O)NC1CN(CCCCCNC(=O)c2cc(-c3cccs3)on2)C1 [Example 17, Methyl (1-(5-(5-(thiophen-2-yl)isoxazole-3-carboxamido)pentyl)azetidin-3-yl)carbamate]	52.9 ± 6.8%	34.6
NC(=O)C1CN(CCCCCNC(=O)c2cc(-c3cccs3)on2)C1 [Example 27, N-(5-(3-Carbamoylazetidin-1-yl)pentyl)-5-(thiophen-2-yl)isoxazole-3-carboxamide]	66.0 ± 2.4%	33.7
O=C(NCCCCCN1CC[C@H](O)C1)c1cc(-c2cccs2)on1 [Example 36]	28.1 ± 6.3%	15.7
CC(=O)N1CCN(CCCCCNC(=O)c2cc(-c3cccs3)on2)CC1 [Example 40]	36.9 ± 7.4%	21.5
C[C@@H]1CN(CCCCCNC(=O)c2cc(-c3cccs3)on2)C[C@H](C)O1 [Example 42]	28.8 ± 8.3%	23.7
O=C(NCCCCCN1CC[C@H](F)C1)c1cc(-c2cccs2)on1 [Example 45, (S)—N-(5-(3-fluoropyrrolidin-1-yl)pentyl)-5-(thiophen-2-yl)isoxazole-3-carboxamide]	51.9 ± 14.9%	24
COC1CN(CCCCCNC(=O)c2cc(-c3cccs3)on2)C1 [Example 47]	64.4 ± 17.2%	27.8
O=C(NCCCCCN1CC(O)C1)c1cc(-c2cccs2)on1 [Example 48]	75.8 ± 4.5%	37.5
N#CCC1CN(CCCCCNC(=O)c2cc(-c3cccs3)on2)C1 [Example 49]	47.5 ± 9.2%	37.1
O=C(NCCCCCN1CC2CCC(C1)O2)c1cc(-c2cccs2)on1 [Example 51, N-(5-(8-oxa-3-azabicyclo[3.2.1]octan-3-yl)pentyl)-5-(thiophen-2-yl)isoxazole-3-carboxamide]	48.6 ± 3.0%	9.9
CN1CC2CCC1CN2CCCCCNC(=O)c1cc(-c2cccs2)on1 (centres unmarked) [Example 52, N-(5-(5-methyl-2,5-diazabicyclo[2.2.2]octan-2-yl)pentyl)-5-(thiophen-2-yl)isoxazole-3-carboxamide]	28.2 ± 11.9%	26.7
O=C(NCCCCCN1CCC(F)CC1)c1cc(-c2cccs2)on1 [Example 53]	34.7 ± 9.8%	22.9
O=C(NCCCCCN1CCN(CCO)CC1)c1cc(-c2cccs2)on1 [Example 54, N-(5-(4-(2-hydroxyethyl)piperazin-1-yl)pentyl)-5-(thiophen-2-yl)isoxazole-3-carboxamide]	35.6 ± 11.8%	27.8
O=C(NCCCCCN1CC(CO)C1)c1cc(-c2cccs2)on1 [Example 55]	53.1 ± 6.2%	29
N#CC1CCN(CCCCCNC(=O)c2cc(-c3cccs3)on2)CC1 [Example 56]	26.5 ± 9.4%	36.9
O=C(NCCCCCN1CC(F)C1)c1cc(-c2cccs2)on1 [Example 59]	54.1 ± 5.8%	29.1
NC(=O)C1CN(CCCCCNC(=O)c2cc(-c3ccc(F)cc3)on2)C1 [Example 65, N-(5-(3-carbamoylazetidin-1-yl)pentyl)-5-(4-fluorophenyl)isoxazole-3-carboxamide]	43.1 ± 7.6%	29.8
N#CCC1CN(CCCCCNC(=O)c2cc(-c3ccc(F)cc3)on2)C1 [Example 66]	61.5 ± 6.0%	25.1
O=C(NCCCCCN1CC(O)C1)c1cc(-c2ccc(F)cc2)on1 [Example 67]	58.2 ± 3.5%	18.9
